Test results published in publication PMC4251536 (Journal of Natural Products, 2014).
pIC50: −log10 of the molar value.

How the values were obtained:
[1] = system: voltage-gated sodium channels (VGSCs); assay type: cell-based, mouse; settings: veratridine-stimulated Na+ influx, murine cerebrocortical neurons
[2] = system: sodium ion channel in Neuro-2a cells; settings: read-out: IC50, sodium ion channel blocking activity (veratridine-induced sodium influx), natural product; cited from earlier work
[3] = system: human lung adenocarcinoma cells; settings: cited from earlier work

SMILES	fold more potent than the other analogues tested [1]	pIC50 [2]	cytotoxicity (in words) [3]
C[C@H]1CCCC(=O)N(C)/C=C/CC[C@H](C)C(=O)O[C@H](C(C)(C)C)C1 [compound 3, (+)-palmyrolide A]	3–9 fold	–	–
C[C@@H]1CCCC(=O)N(C)/C=C/CC[C@@H](C)C(=O)O[C@@H](C(C)(C)C)C1 [compound 1, (−)-palmyrolide A]	3–9 fold	5.28	no appreciable cytotoxicity
C[C@@H]1CCCC(=O)N(C)CCCC[C@@H](C)C(=O)O[C@@H](C(C)(C)C)C1 [compound 5, 17,18-Dihydropalmyrolide A]	3–9 fold	–	–
